Where two headings read alike, the source gives them in different places.
What was measured:
Assay type in all cases: cell-based
[1] = system: Cupriavidus necator H16 ΔphaC1 hadA-phaC1437; conditions: shake-flask, 30° C., determined from 20 mM down in steps of 5 mM until acceptable growth
Procedure: (§1) Liquid cultures under heterotrophic conditions were conducted in 500 mL vented, baffled shake-flasks (WHEATON® Erlenmeyer Flasks with DuoCap®. DWK Life Sciences), incubated with shaking at 180 rpm on an innova 2300 platform shaker (New Brunswick Scientific) at 30° C. For feeding experiments, precultures of the engineered C. necator strains were inoculated in liquid RB+kan (50 mL) from solid RB+kan and grown over-night. In the morning the medium was exchanged for MSM+kan, diluting the culture 1:2 (in 100 mL). In the afternoon the seed-culture was washed with MSM and again diluted 1:2 (in 200 mL) with MSM+kan+polymer-precursor and induced with arabinose (1 g/L, unless indicated otherwise) in the evening. OD was monitored accompanied by collection of supernatant samples.
(§2) In a PHA-negative knock-out mutant (ΔphaC1) of the type-strain ‘H16’, pct540 & phaC1437 and hadA & phaC1437 were expressed, respectively.
(§3) Toxicity limits of the respective hydroxy carbonic acids were determined outgoing from 20 mM down in steps of 5 mM until acceptable growth was obtained in shake-flask experiments at 30° C.
(§4) Cultivations conducted on minimal salt medium with 30 g/L fructose as carbon-source and 2 g/L ammonium chloride as nitrogen-source (limiting). Cultures were inoculated at an OD600 of ≈0.5-1.

[2] = system: Cupriavidus necator H16 wild-type; assay: Shake-flask cultivation with externally supplied hydroxy carbonic acids (toxicity limit, growth), wild-type strain; conditions: for final biomass: H16 wild-type cultivated with the hydroxyalkanoate at its listed concentration, 2 g/L ammonium chloride
Procedure: as §1, §2, §3, §4

[3] = system: Cupriavidus necator H16 ΔphaC1 pct540-phaC1437; conditions: for final biomass: H16 ΔphaC1 pct540-phaC1437 cultivated with the hydroxyalkanoate at its listed concentration, 30 g/L fructose, 2 g/L ammonium chloride; for Concentration (maximum non-toxic concentration of hydroxyalkanoate): H16 ΔphaC1 pct540-phaC1437, shake-flask, 30° C., determined from 20 mM down in steps of 5 mM until acceptable growth
Procedure: as §1, §2, §3, §4

[4] = H16 wild-type, shake-flask, 30° C., determined from 20 mM down in steps of 5 mM until acceptable growth, MSM, 30 g/L fructose

SMILES	Concentration (maximum non-toxic concentration of hydroxyalkanoate) [1]	Concentration (maximum non-toxic concentration of hydroxyalkanoate) [2]	final biomass ([2]; 30 g/L fructose)	final biomass [3]	Concentration (maximum non-toxic concentration of hydroxyalkanoate) [2, 4]	Concentration (maximum non-toxic concentration of hydroxyalkanoate) [3]
O=C(O)C(O)c1ccccc1 (centres unmarked) [mandelic acid]	5000 µM	–	–	–	–	–
CC(O)C(=O)O (centres unmarked) [lactic acid]	–	20 mM	18.2 g/L	1.9 g/L	–	–
O=C(O)CCCO [4-hydroxybutanoic acid]	20000 µM	–	4.1 g/L	1.9 g/L	20 mM	20000 µM
O=C(O)CCCCCO [6-hydroxyhexanoic acid]	(<10 mM)	–	3.5 g/L	1.5 g/L	(<10 mM)	(<10 mM)
O=C(O)/C=C/c1ccc(O)cc1 [para-coumaric acid]	5000 µM	–	–	–	–	–
O=C(O)/C=C/c1ccc(O)c(O)c1 [caffeic acid]	5000 µM	–	–	–	–	–
O=C(O)CO [glycolic acid]	–	–	6.8 g/L	1.4 g/L	–	–
O=C(O)CCc1ccc(O)cc1 [phloretic acid]	5000 µM	–	–	–	–	–
O=C(O)C(O)Cc1ccccc1 (centres unmarked) [phenyllactic acid]	10000 µM	–	–	–	–	–
O=C(O)C(O)CCc1ccccc1 (centres unmarked) [2-hydroxy-4-phenylbutanoic acid]	15000 µM	–	–	–	–	–
O=C(O)CCO [3-hydroxypropanoic acid]	20000 µM	–	5.7 g/L	1.6 g/L	20 mM	20000 µM

— patent publication US20240384311A1, “POLYHYDROXYALKANOATES AND METHODS OF MAKING THEREOF” (The Board of Trustees of the Leland Stanford Junior …, priority 2021, published 2024)
